In patent publication US20250082625A1, “NOVEL THERAPY” (priority 2016, published 2025):
Where no end group is shown, it is not given here.

Assays:
[1] = tested on: HTB-9 cells; assay: Pre-treatment of HTB-9 bladder epithelial cells before CY17 infection (confocal imaging, ELISA); assay type: cell-based, human; conditions: for IL-1β secretion (ELISA, culture supernatants) / SP secretion (ELISA, culture supernatants): pre-treated before CY17 infection
Method: (§1) Cells were grown on 8-well chamber slides (6×10^4 cells/well, Thermo Fischer Scientific) or in 6-well plates (6×10^5 cells/well) for 16 hours in media supplemented with 10% FBS. Media were removed, and cells were washed with PBS before adding medium without FBS. Cells were infected with bacteria diluted to appropriate concentration in PBS and incubated for one or four hours at 37° C. with 5% CO2.
(§2) The two cell types were first infected with increasing concentrations of the acute cystitis strain E. coli CY-17 (10^2-10^4 cfu/ml) for 1 to 4 hours. NK1R and SP expression was used as a read out of the cellular response. […] A concentration of 10^4 cfu/ml of CY-17 and four hours of infection was chosen for further studies. Under these conditions, there was little cytotoxicity. To further characterize the neuropeptide response to bladder infection, the in vitro analysis was extended to include GALR2, OrxR2 and TAS2R43. Confocal microscopy was used in this instance. Infected cells were fixed (3.7% formaldehyde, 15 min), permeabilized (0.25% triton X-100, 5% FBS, 10 min), blocked (5% FBS, 1 h at RT), incubated overnight with primary antibodies in 5% FBS: Anti-NK1R (1:100, SC-15323, Santa Cruz), anti-SP, (1:200, ORB11399, Biorbyt), anti-orexin receptor 2, (1:200, AB10470, Abcam), anti-TAS2R43, (1:200, AB65513, Abcam), and anti-GALR2 antibodies (1:100, AB136264, Abcam). Appropriate fluorescently labeled secondary antibodies were used (Alexa Fluor® 488 goat anti-rabbit IgG, A-11034; Life Technologies, (1 hour at Room Temperature). After nuclear staining (DRAQ5, 1:1000, Abcam) slides were mounted (Fluoromount, Sigma-Aldrich), imaged by laser scanning confocal microscopy (MSM510 META confocal microscope, Carl Zeiss) and quantified by ImageJ software 1.46r (NIH).
(§3) HTB-9 cells and differentiated SH-SY5Y cells were pre-treated with SR140333, or IL-1RA Anakinra (500 ng/ml) for 30 minutes before infection with CY17 (10^4 cfu/ml, four hours), or treatment with exogenous recombinant SP (R&D System) or IL-1β (Abnova) (20 ng/ml, four hours). After infection, cells were infected with CY17 and the NK1R, SP and IL-1β response was quantified by confocal imaging. IL-1β- and SP secretion was quantified by ELISA, in culture supernatants. In nerve- and bladder epithelial cells, SR140333 inhibited the SP/NK1R response to infection, consistent with an autocrine activation loop involving SP/NK1R as shown by confocal imaging (FIG. 10a). […] SP activated IL-1β expression and secretion in bladder epithelial cells but had no effect on IL-1β on nerve cells. (*=P<0.05, **=P<0.01, ***=P<0.001, Two-tailed t-test for confocal imaging data and Mann-Whitney U-test for ELISAs.
Furthermore, to examine if the effects of NK1R inhibition can be generalized, we used two additional NK1R antagonists (CP99994 and L703.303). HTB-9 cells and differentiated SH-SY5Y cells were pre-treated with SR140333, CP99994, L-703.606 or IL-1RA Anakinra (500 ng/ml) for 30 minutes before infection with CY17 (10^4 cfu/ml, four hours), or treatment with exogenous recombinant SP (R&D System) or IL-1β (Abnova) (20 ng/ml, four hours).

[2] = tested on: differentiated SH-SY5Y cells; assay: Treatment of differentiated SH-SY5Y nerve cells with exogenous recombinant SP or IL-1β; assay type: cell-based, human; conditions: four hours
Method: as §3

[3] = tested on: HTB-9 cells; assay: Treatment of HTB-9 bladder epithelial cells with exogenous recombinant SP or IL-1β; assay type: cell-based, human; conditions: four hours
Method: as §3

[4] = tested on: Asc^−/− mice; conditions: cited from earlier work
[5] = tested on: Asc^−/− mice; assay: Anakinra treatment of infected Asc^−/− mice (bladder NK1R/SP staining, disease severity); assay type: in vivo
Method: FIG. 8a The mice were pre-treated with interleukin 1 receptor antagonist (IL1-RA) Anakinra, 30 min before infection and daily after infection with E. coli CFT073 (1 mg in 100 μl of PBS i.p. per mouse). FIG. 8b Reduction in NK1R in Anakinra® treated compared to untreated control mice. Bladder tissue sections from infected Asc^−/− mice treated with Anakinra® were stained for NK1R. […] FIG. 8c Reduction in SP staining in Anakinra® treated Asc^−/− mice compared to untreated mice. […] Sections were obtained from 3 mice per group; one of two experiments is shown. *=p<0.05, **=p<0.01, two tailed t-test). FIG. 8d The disease severity score was reduced by the Anakinra (n=3-4, ***P<0.001, compared to untreated Asc^−/− mice, Fisher's exact test, Reference for (d):.
To confirm the importance of Il1b for the neuropeptide response, susceptible Asc^−/− mice were treated with the IL-1 receptor (IL-1R) antagonist Anakinra® (FIG. 8a). This therapeutic approach was recently shown to be effective against acute cystitis, as Anakinra® attenuated the hyper-inflammatory response to infection and prevented bladder pathology in susceptible mice.
These findings were confirmed in vitro by pretreating nerve cells and bladder epithelial cells with Anakinra (500 ng/ml) followed by CY-17 infection (10^4 CFU/ml, 4 hours).

[6] = tested on: differentiated SH-SY5Y cells; assay: Pre-treatment of differentiated SH-SY5Y nerve cells before CY17 infection (confocal imaging, ELISA); assay type: cell-based, human
Method: as §1, §2, §3
Furthermore, to examine if the effects of NK1R inhibition can be generalized, we used two additional NK1R antagonists (CP99994 and L703.303). […]

[7] = susceptible mice, recently shown
[8] = infected Asc^−/− mice, 1 mg in 100 μl PBS i.p. 30 min before and daily after infection, vs infected controls without therapy
[9] = exogenous recombinant SP 20 ng/ml

Ic1ccccc1CN[C@@H]1C2CCN(CC2)[C@@H]1C(c1ccccc1)c1ccccc1 [L703.606, (2R,3R)-2-benzhydryl-N-[(2-iodanylphenyl)methyl]-1-azabicyclo[2.2.2]octan-3-amine]
IL-1β secretion (ELISA, culture supernatants) [1]: decreased
SP secretion (ELISA, culture supernatants) [1]: decreased

COc1ccccc1CN[C@H]1CCCN[C@H]1c1ccccc1 [CP99994, (2S,3S)-N-[(2-Methoxyphenyl)methyl]-2-phenyl-3-piperidinamine]
IL-1β secretion (ELISA, culture supernatants) [1]: decreased
SP secretion (ELISA, culture supernatants) [1]: decreased

IL-1β: exogenous recombinant IL-1β (Abnova)
SP/NK1R expression ([2]; exogenous IL-1β 20 ng/ml): increased
SP/NK1R expression ([3]; exogenous IL-1β 20 ng/ml): increased

Anakinra: interleukin 1 receptor antagonist (IL1-RA) Anakinra
IL-1β secretion (ELISA, culture supernatants) [1]: inhibited
NK1R expression / staining ([1]; pretreatment prior to CY17 infection (10^4 CFU/ml, 4 hours)): marked reduction
disease severity score ([4]; compared to untreated Asc^−/− mice, n=3-4, P<0.001): reduced
bladder pathology [4, 7]: prevented
hyper-inflammatory response to infection [4, 7]: attenuated
NK1R response (mucosal NK1R staining, bladder sections) [5, 8]: marked reduction
SP response (mucosal SP staining, bladder sections) [5, 8]: marked reduction
baseline NK1R staining ([5]; uninfected mice): reduced
baseline SP staining ([5]; uninfected mice): reduced
NK1R staining ([6]; Anakinra 500 ng/ml pretreatment, CY-17 infection (10^4 CFU/ml, 4 hours)): marked reduction
SP/NK1R response to infection (confocal imaging) ([6]; pre-treated 30 minutes before CY17 (10^4 cfu/ml, four hours)): no effect

SP: exogenous recombinant SP (R&D System), ligand of NK1R (RPKPQQFFGLM-NH2; ends and bridges not checked; UniProt P20366 58-68, looked up)
IL-1β [2, 9]: no effect
IL-1β expression and secretion [3, 9]: activated
